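Briefly, cells in 96-well plates were exposed to five compound concentrations for 48 h, and endpoints were estimated by linear interpolation. At the TGI there is no net growth.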 Some results are limits rather than exact numbers.

Results on 13 compounds are retold here after PubChem BioAssay (NCI).

What all share (test): NCI-60 cell line screen, 48 h
The subject of assay [1] is UACC-62 melanoma.
Assay [2] concerns SNB-19 CNS.
Assay [3] has as its system UACC-257 melanoma.
The subject of assay [4] is SR leukemia.
In assay [5] the test system is TK-10 renal.
Assay [6] has as its system NCI-H23 lung.
For assay [7], the system named is NCI-H226 lung.
In assay [8] the test system is OVCAR-5 ovarian.
In assay [9] the test system is HL-60(TB) leukemia.
Assay [10] has as its system PC-3 prostate.
For assay [11], the system named is U251 CNS.
Assay [12] deals with MCF7 breast.
For assay [13], the system named is OVCAR-4 ovarian.
In assay [14] the test system is 786-0 renal.
For assay [15], the system named is ACHN renal.
The test system of assay [16] is SK-MEL-5 melanoma.
Assay [17] deals with HCC-2998 colon.

As to `CC1CN(c2cc3c(cc2F)c(=O)c(C(=O)O)cn3-c2ccc(F)cn2)CC(C)N1` (stereo not drawn), the TGI in [1], in assay [2], in [3], in assay [4], in assay [5] and in assay [6] was over 100 µM each time. Also, the TGI in assay [7], in [8], in assay [9], in assay [10], in assay [11] and in [12] was over 100 µM in each case. For the same compound, the TGI in assay [13] and in [14] was over 100 µM each time.
`COc1nc2c(c(=O)n1C)N=C(c1ccccc1)[C@H](C(CC(=O)c1ccccc1)c1ccccc1)C(c1ccccc1)N2` (stereo partly drawn): the TGI in assay [1], in assay [2], in assay [3], in [4], in assay [15] and in assay [6] was over 100 µM throughout. Also, the TGI in assay [7], in assay [16], in assay [8], in assay [17], in assay [9] and in [10] was over 100 µM each time. Further, the TGI in [11], in assay [12], in assay [13] and in [14] was over 100 µM in each case.
As to `CCS(=O)(=O)CCn1c(=O)c2c(ncn2C)n(C)c1=O`, the TGI in assay [1], in assay [2], in assay [3], in [4], in [15] and in assay [5] was over 100 µM each time. In addition, the TGI in assay [6], in assay [16], in [8], in assay [17], in [9] and in assay [10] was over 100 µM in each case. The TGI in assay [11], in assay [12], in assay [13] and in assay [14] was over 100 µM throughout.
For the compound `N#CC(C#N)N=Nc1ccc(-c2nc3ccccc3o2)cc1`, the TGI in assay [1] stood at 26.1 µM; in assay [2] it was 60 µM; in [3], 17.8 µM; in [4] it was 42.6 µM; in [15] it was 41.6 µM; in assay [5] it was 38.2 µM. The TGI in assay [6] amounted to 29.9 µM; in assay [16], 5.56 µM; in assay [8] it was 36.1 µM; in assay [17] it was 14.7 µM; in [9] it was 40.2 µM; in assay [10], 29.2 µM. For the same compound, the TGI in [11] was 29.7 µM; in assay [12], 36.2 µM; in assay [13], over 100 µM; in assay [14], 30.8 µM.
For the compound `COc1ccc(NC(C)=O)c(C(O)CCNC(C)=O)c1` (stereo not drawn), the TGI in assay [1], in assay [2], in assay [3], in assay [4], in [15] and in [5] was over 100 µM throughout. In addition, the TGI in assay [6], in assay [7], in assay [16], in assay [8], in assay [9] and in [10] was over 100 µM each time. Moreover, the TGI in [11], in assay [12], in assay [13] and in assay [14] was over 100 µM each time.
For the compound `CC(=O)O[C@@]12CO[C@@H]1C[C@@H](O)[C@@]1(C)C(=O)[C@H](O)C3=C(C)[C@@H](OC(=O)[C@H](O)[C@@H](NC(=O)c4ccccc4)c4ccccc4)C[C@@](O)([C@@H](OC(=O)c4ccccc4)C12)C3(C)C` (stereo partly drawn), the TGI in [2] was over 100 µM; in [3], over 100 µM; in assay [4] it was over 50.1 µM; in [15], 57 µM; in [5], over 72.5 µM; in assay [7] it was 81.9 µM. The TGI in [17] is 0.0705 µM; in assay [9], over 39.9 µM; in assay [10] it was over 100 µM; in assay [11], over 100 µM; in assay [12] it was over 100 µM; in assay [13], over 100 µM. Also, the TGI in assay [14] is over 100 µM.
For the compound `CCCCCCCCCCCCCCCCOP(=O)(O)OCC(NC(C)=O)C(=O)O` (stereo not drawn), the TGI in [2] was 35.6 µM; in [3] it was over 100 µM; in assay [4], over 100 µM; in [15] it was over 100 µM; in assay [5], 62.6 µM; in [6] it was over 100 µM. In addition, the TGI in [7] is over 100 µM; in assay [16], over 100 µM; in assay [8], over 100 µM; in assay [17] it was over 100 µM; in assay [9] it was over 100 µM; in [10] it was 34.7 µM. Moreover, the TGI in assay [11] was 40.8 µM; in assay [12] it was over 100 µM; in [13] it was 60.7 µM; in [14], over 100 µM.
For `O=C(NC(Cc1cnc[nH]1)C(=O)N1CCCC1)C1CCCC1` (stereo not drawn), the TGI in assay [1], in assay [2], in [4], in assay [15], in [5] and in [6] was over 100 µM in each case. Besides, the TGI in assay [7], in [16], in assay [8], in assay [17], in assay [9] and in assay [10] was over 100 µM each time. Besides, the TGI in assay [11], in [12], in assay [13] and in assay [14] was over 100 µM in each case.
For the compound `O/N=C1/CC2(N3CCOCC3)C3CC/C(=N\O)C2CC1(Cc1ccccc1)C3` (stereo not drawn), the TGI in assay [1], in assay [2], in assay [3], in [4], in assay [15] and in assay [6] was over 100 µM in each case. Moreover, the TGI in assay [7], in assay [16], in assay [8], in assay [17], in assay [9] and in assay [10] was over 100 µM each time. The TGI in assay [11], in [12], in [13] and in assay [14] was over 100 µM in each case.
On to `COC(=O)C(COC(=O)/C=C/c1ccc(OC(C)=O)c(OC(C)=O)c1)NC(=O)/C=C/c1ccc(OC(C)=O)c(OC(C)=O)c1` (stereo not drawn), for which the TGI in [1] was 35.1 µM; in assay [2], over 100 µM; in [3], over 100 µM; in [4] it was over 100 µM; in assay [15], 80.8 µM; in assay [6], 73.4 µM. Also, the TGI in [7] was over 100 µM; in assay [16], 29.7 µM; in assay [8], over 100 µM; in [17] it was 47.3 µM; in [9] it was over 100 µM; in assay [10] it was 32.6 µM. Besides, the TGI in assay [11] was over 100 µM; in assay [12] it was over 100 µM; in [13], 62.8 µM; in assay [14], 47.2 µM.
For `COc1ccc(C2=C(N)c3ncccc3C2=O)cc1`, the TGI in [1] is over 100 µM; in assay [2], over 100 µM; in assay [3], over 10 µM; in assay [4], over 100 µM; in assay [15], over 10 µM; in [5], over 10 µM. Further, the TGI in assay [6], in assay [7], in assay [8], in assay [17], in assay [9] and in [10] was over 100 µM each time. Besides, the TGI in assay [11], in assay [12], in [13] and in [14] was over 100 µM in each case.
On to `O=S(=O)(SC1=NCCN1)c1cccc2ccccc12`, for which the TGI is over 100 µM in assay [1]; 83.7 µM in assay [2]; over 100 µM in assay [3]; over 10 µM in assay [4]; 70.5 µM in assay [15]; 91.2 µM in assay [6]. In addition, the TGI was 73 µM in [7]; 43 µM in assay [16]; 93.5 µM in assay [8]; over 10 µM in [17]; over 10 µM in [9]; over 100 µM in assay [10]. For the same compound, the TGI was over 100 µM in assay [11], over 100 µM in [12], over 100 µM in assay [13] and 74.9 µM in [14].
Turning to `O=C(NNC(=S)NCc1ccccc1)c1csc(NC(=S)NC2CCCCC2)n1`, the TGI in [1] was over 100 µM; in assay [2], over 100 µM; in assay [3] it was 43 µM; in assay [4], over 100 µM; in assay [15], over 100 µM; in assay [5] it was over 100 µM. Moreover, the TGI in assay [6] is over 100 µM; in assay [7] it was 64.7 µM; in assay [16] it was 28.2 µM; in assay [8], over 100 µM; in assay [17], over 100 µM; in assay [9] it was over 100 µM. In addition, the TGI in [10], in [11], in [12] and in [14] was over 100 µM throughout.
